Here are results for 1 substance from patent publication US7070768B2, “Method for imparting artificial tan to human skin” (Allergan, Inc., priority 2003, dated 2006).

Experiment [1] deals with human skin. Nature of the experiment: Oral bimatoprost tablets in a patient, skin color. The class given is in vivo. Particulars: oral tablet, 2 x 100 mg per dose, 3 doses per day, four months. From the text:
A patient began taking bimatoprost as a tablet.

Experiment [2] concerns eyelashes. Particulars: Lumigan ophthalmic solution, applied in the FDA approved manner; cited from earlier work.

Take “cyclopentane N-ethyl heptanamide-5-cis-2-(3α-hydroxy-5-phenyl-1-trans-pentenyl)-3,5-dihydroxy, [bimatoprost, cyclopentane N-ethyl heptanamide-5-cis-2-(3α-hydroxy-5-phenyl-1-trans-pentenyl)-3,5-dihydroxy, [1α,2β,3α,5α]]”: in experiment [1], the “skin color after treatment” value is “turned to a dark brown color”. The growth of eyelashes entry in experiment [2] is “effective to increase the growth of eyelashes”.
